Laboratory results reported in US20210207188A1, “BETA-LACTAM COMPOUNDS AND METHODS OF USE THEREOF” (priority 2018, published 2021).

Tests used:
[1] = system: beta-lactamases, including NDM-1, IMP-1, VIM-2, KPC-2, OXA-48, AmpC, and TEM; experiment: Fluorescence-based activity assay, whole panel of tested beta-lactamases; format: biochemical; details: for specificity among the tested beta-lactamases: conclusion from fluorescence signals; for changes in the fluorescence signal with the tested beta-lactamases: probe 2.0 μM, MCW-010 within 20 minutes
Procedure: (§1) Recombinant his-tagged beta-lactamases, including NDM-1, IMP-1, KPC-2, VIM-2 and OXA-48 were overexpressed in Escherichia coli. The enzymes were purified using HisTrap Ni-NTA columns. AmpC and TEM were purchased from commercial sources.
(§2) The fluorescence-based activity assays were performed in phosphate-buffer saline. The concentration of some of the compounds were determined by boiling the compounds in PBS solution until fluorescence signal was saturated. The amount of released fluorophore was quantified via fluorescence spectroscopy by comparing to a corresponding calibration curve.
Among the tested beta-lactamases, NDM-1, IMP-1, VIM-2, KPC-2 and OXA-48 are carbapenemases, whereas AmpC and TEM are not. Nitrocefin was used as a control to test the activity of the beta-lactamases because it can be hydrolyzed by a wide range of beta-lactamases.

[2] = target: T1, IMP-1 (Serratia marcescens, UniProt P52699); format: biochemical; details: IMP-1; for fluorescence signal over time: probe 2.0 μM (MCW-002 1.1 μM, MCW-011 0.5 μM), PBS
T1 construct: His tag; made in house; host or cells: Escherichia coli
Procedure: as §1, §2

[3] = target: T2, KPC-2 (Klebsiella pneumoniae, UniProt Q9F663); format: biochemical; details: for fluorescence signal over time: probe 2.0 μM (MCW-002 1.1 μM, MCW-011 0.5 μM), PBS
T2 construct: His tag; made in house; host or cells: Escherichia coli
Procedure: as §1, §2

[4] = target: T3, NDM-1 (Klebsiella pneumoniae, UniProt C7C422); format: biochemical; details: for fluorescence signal over time: probe 2.0 μM (MCW-002 1.1 μM, MCW-011 0.5 μM), PBS
T3 construct: His tag; made in house; host or cells: Escherichia coli
Procedure: as §1, §2

[5] = target: T4, TEM (Escherichia coli, UniProt P62593); experiment: Activity of beta-lactamases towards probes (fluorescence-based activity assay), TEM; format: biochemical; details: probe 2.0 μM (MCW-002 1.1 μM, MCW-011 0.5 μM), PBS
T4 construct: purchased
Procedure: as §1, §2

[6] = system: AmpC; experiment: Activity of beta-lactamases towards probes (fluorescence-based activity assay), AmpC; format: biochemical; details: probe 2.0 μM (MCW-002 1.1 μM, MCW-011 0.5 μM), PBS
Procedure: as §1, §2

[7] = target: T5, VIM-2 (Escherichia coli, UniProt Q5U7L7); format: biochemical; details: for fluorescence signal over time: probe 2.0 μM (MCW-011 0.5 μM), PBS
T5 construct: His tag; made in house; host or cells: Escherichia coli
Procedure: as §1, §2

[8] = target: T6, OXA-48 (Klebsiella pneumoniae, UniProt Q6XEC0); format: biochemical; details: for fluorescence signal over time: probe 2.0 μM (MCW-011 0.5 μM), PBS
T6 construct: His tag; made in house; host or cells: Escherichia coli
Procedure: as §1, §2

[9] = system: clinical isolates (CPE, Carbapenemase Producing Enterobacteriaceae, and Non CPE strains); experiment: Selectivity of probes with clinical isolates in lysis buffer (visible light and UV light); format: cell-based; details: probe 10 μM
Procedure: The selectivity of some probes were evaluated with clinical isolates. The carbapenemases presence in the bacteria (CPE, i.e., Carbapenemase Producing Enterobacteriaceae) were verified by PCR (Polymerase Chain Reaction). 1 μL loop-full of each test bacterium from overnight-cultured LB agar plate were added to 100 μL PBS buffer with 0.5% CHAPS. The bacteria were vortexed to give a homogenious suspension and incubated for 15 min. To each of the bacteria-lysis buffer mixture (20 μL) were added quick test reagents (Probes (Final concentration=10 μM), CarbaNP solution A and CarbaNP solution B). CarbaNP solutions A and B were freshly prepared according to CLSI protocol, where solution A contains 10 mM zinc sulphate and phenol red buffer at pH=7.8±0.1 and solution B was a mixture of solution A with 3 mg/mL imipenem.

## CC[Si](CC)(CC)O[C@H](C)[C@H]1C(=O)N2C(C(=O)O)=C(/C=C/COc3ccc(COc4ccc5nc6ccc(=O)cc-6oc5c4)cc3OC)C[C@H]12 [MCW-002, (5R,6S)-3-((E)-3-(2-methoxy-4-(((3-oxo-3H-phenoxazin-7-yl)oxy)methyl)phenoxy)prop-1-en-1-yl)-7-oxo-6-((R)-1-((triethylsilyl)oxy)ethyl)-1-azabicyclo[3.2.0]hept-2-ene-2-carboxylic acid]
[1]
  specificity among the tested beta-lactamases: specific for NDM-1 and IMP-1, especially NDM-1
[2]
  relative rate of hydrolysis reaction: slower compared to the reaction with NDM-1
  fluorescence signal over time: pronounced increase in the fluorescent signal
[3]
  fluorescence signal over time: minimal changes in the fluorescent signal
[4]
  fluorescence signal over time: pronounced increase in the fluorescent signal
[5]
  fluorescence signal over time: minimal changes in the fluorescent signal
[6]
  fluorescence signal over time: minimal changes in the fluorescent signal

## COC(=O)C1=C(/C=C/COc2ccc(COc3ccc4nc5ccc(=O)cc-5oc4c3)cc2OC)C[C@@H]2[C@@H]([C@@H](C)O)C(=O)N12 [MCW-003, Methyl (5R,6S)-6-((R)-1-hydroxyethyl)-3-((E)-3-(2-methoxy-4-(((3-oxo-3H-phenoxazin-7-yl)oxy)methyl)phenoxy)prop-1-en-1-yl)-7-oxo-1-azabicyclo[3.2.0]hept-2-ene-2-carboxylate]
[1]
  changes in the fluorescence signal with the tested beta-lactamases: unreactive to the tested beta-lactamases

## COc1ccc(-c2c3ccc(=O)cc-3oc3cc(OCc4ccc(OC/C=C/C5=C(C(=O)O)N6C(=O)[C@H]([C@@H](C)O)[C@H]6C5)c(OC)c4)ccc23)c(C)c1 [MCW-004, (5R,6S)-6-((R)-1-hydroxyethyl)-3-((E)-3-(2-methoxy-4-(((9-(4-methoxy-2-methylphenyl)-3-oxo-3H-xanthen-6-yl)oxy)methyl)phenoxy)prop-1-en-1-yl)-7-oxo-1-azabicyclo[3.2.0]hept-2-ene-2-carboxylic acid]
[7]
  3S/k (detection limit of the probe towards the carbapenemase): 5.37 pM
[7]; Michaelis-Menten kinetics
  Kcat: 2.28 ± 0.07 s⁻¹
  Km: 1.88 ± 0.13 µM
[8]
  3S/k (detection limit of the probe towards the carbapenemase): 24.9 pM
[8]; Michaelis-Menten kinetics
  Kcat: 10.2 ± 0.74 s⁻¹
  Km: 1.09 ± 0.12 µM
[2]
  3S/k (detection limit of the probe towards the carbapenemase): 0.328 pM
[2]; Michaelis-Menten kinetics
  Kcat: 47.3 ± 3.34 s⁻¹
  Km: 1.74 ± 0.29 µM
[3]
  3S/k (detection limit of the probe towards the carbapenemase): 5.28 pM
[3]; Michaelis-Menten kinetics
  Kcat: 2.36 ± 0.22 s⁻¹
  Km: 3.41 ± 0.59 µM
[4]
  3S/k (detection limit of the probe towards the carbapenemase): 0.546 pM
[4]; Michaelis-Menten kinetics
  Kcat: 23.5 ± 0.98 s⁻¹
  Km: 1.57 ± 0.16 µM
[9]; incubated for 15 min
  signal with panel of clinical isolates: observable fluorogenic signal in CPE strains but not the Non CPE strains
[9]; incubated for 120 min
  signal with panel of clinical isolates: observable fluorogenic signal in CPE strains but not the Non CPE strains

## COc1cc(COc2ccc3nc4ccc(=O)cc-4oc3c2)ccc1OC/C=C/C1=C(C(=O)N(C)O)N2C(=O)[C@H]([C@@H](C)O)[C@H]2C1 [MCW-006, (5R,6S)-N-hydroxy-6-((R)-1-hydroxyethyl)-3-((E)-3-(2-methoxy-4-(((3-oxo-3H-phenoxazin-7-yl)oxy)methyl)phenoxy)prop-1-en-1-yl)-N-methyl-7-oxo-1-azabicyclo[3.2.0]hept-2-ene-2-carboxamide]
[1]
  changes in the fluorescence signal with the tested beta-lactamases: unreactive to the tested beta-lactamases

## C[C@@H](O)[C@H]1C(=O)N2C(C(=O)O)=C(c3ccc(COc4ccc5nc6ccc(=O)cc-6oc5c4)cc3)C[C@H]12 [MCW-008, (5R,6S)-6-((R)-1-hydroxyethyl)-7-oxo-3-(4-(((3-oxo-3H-phenoxazin-7-yl)oxy)methyl)phenyl)-1-azabicyclo[3.2.0]hept-2-ene-2-carboxylic acid]
[1]
  specificity among the tested beta-lactamases: specific for carbapenemases
[7]
  fluorescence signal over time: increase in the fluorescent signal
[8]
  fluorescence signal over time: increase in the fluorescent signal
[2]
  fluorescence signal over time: increase in the fluorescent signal
[3]
  fluorescence signal over time: increase in the fluorescent signal
[4]
  fluorescence signal over time: increase in the fluorescent signal
[5]
  fluorescence signal over time: minimal changes in the fluorescent signal
[6]
  fluorescence signal over time: minimal changes in the fluorescent signal

## COc1ccc(-c2c3ccc(=O)cc-3oc3cc(OCc4ccc(C5=C(C(=O)O)N6C(=O)[C@H]([C@@H](C)O)[C@H]6C5)cc4)ccc23)c(C)c1 [MCW-009, (5R,6S)-6-((R)-1-hydroxyethyl)-3-(4-(((9-(4-methoxy-2-methylphenyl)-3-oxo-3H-xanthen-6-yl)oxy)methyl)phenyl)-7-oxo-1-azabicyclo[3.2.0]hept-2-ene-2-carboxylic acid]
[7]; probe 2.0 μM
  time until hydrolysis reaction complete (fluorescent signal plateaued): > 20 min
[7]
  fluorescence signal over time: increase in the fluorescent signal
[2]; probe 2.0 μM
  time until hydrolysis reaction complete (fluorescent signal plateaued): > 20 min
[2]
  fluorescence signal over time: increase in the fluorescent signal
[3]; probe 2.0 μM
  time until hydrolysis reaction complete (fluorescent signal plateaued): > 20 min
[3]
  fluorescence signal over time: increase in the fluorescent signal
[4]; probe 2.0 μM
  time until hydrolysis reaction complete (fluorescent signal plateaued): > 20 min
[4]
  fluorescence signal over time: increase in the fluorescent signal

## C[C@@H](O)[C@H]1C(=O)N2C(C(=O)O)=C(c3ccc(COc4ccc5nc6ccc(=O)cc-6oc5c4)cc3[N+](=O)[O-])C[C@H]12 [MCW-010, (5R,6S)-6-((R)-1-hydroxyethyl)-3-(2-nitro-4-(((3-oxo-3H-phenoxazin-7-yl)oxy)methyl)phenyl)-7-oxo-1-azabicyclo[3.2.0]hept-2-ene-2-carboxylic acid]
[1]
  changes in the fluorescence signal with the tested beta-lactamases: did not exhibited changes in the fluorescence signal

## COc1ccc(-c2c3ccc(=O)cc-3oc3cc(OCc4ccc(OC/C=C/C5=C(C(=O)O)N6C(=O)[C@H]([C@@H](C)O)[C@H]6S5)c(OC)c4)ccc23)c(C)c1 [MCW-011, (5R,6S)-6-((R)-1-hydroxyethyl)-3-((E)-3-(2-methoxy-4-(((9-(4-methoxy-2-methylphenyl)-3-oxo-3H-xanthen-6-yl)oxy)methyl)phenoxy)prop-1-en-1-yl)-7-oxo-4-thia-1-azabicyclo[3.2.0]hept-2-ene-2-carboxylic acid]
[1]
  specificity among the tested beta-lactamases: specific for carbapenemases
[7]
  fluorescence signal over time: increase in the fluorescent signal
[8]
  fluorescence signal over time: increase in the fluorescent signal
[2]
  fluorescence signal over time: increase in the fluorescent signal
[3]
  fluorescence signal over time: increase in the fluorescent signal
[4]
  fluorescence signal over time: increase in the fluorescent signal
[5]
  fluorescence signal over time: minimal changes in the fluorescent signal
[6]
  fluorescence signal over time: minimal changes in the fluorescent signal
